Experimental findings from ChEMBL document CHEMBL3608282 (Bioorg Med Chem Lett, 2015) are described below.

A short description of data set [1]: Therapeutic index, ratio of CC50 for human CEM cells to EC50 for HCV genotype 1b. It is filed as cell-based, CCRF-CEM. The following applies: CEM cells (CC50) versus HCV genotype 1b (EC50).
Another data set relates to PBMC. Kind of data set: Cytotoxicity against PBMC (unknown origin). It is filed as cell-based.
The subject of another data set is CCRF-CEM. Kind of data set: Cytotoxicity against human CEM cells. It counts as cell-based.
Data set [2] in a line: Therapeutic index, ratio of CC50 for human HuH7 cells to EC50 for HCV genotype 1b. It counts as cell-based, Huh-7. The following applies: HuH7 cells (CC50) versus HCV genotype 1b (EC50).
Data set [3] has as its system Hepatitis C virus. The experiment in a line: Antiviral activity against HCV genotype 1b infected in human HuH7 cells assessed as reduction in viral RNA replication. It is filed as functional, organism-based, Hepacivirus hominis. The following applies: Huh-7.
Data set [4] is described as follows: Therapeutic index, ratio of CC50 for african green monkey Vero cells to EC50 for HCV genotype 1b. It counts as cell-based. The following applies: Vero cells (CC50) versus HCV genotype 1b (EC50).
In a further data set the test system is Vero. Kind of data set: Cytotoxicity against african green monkey Vero cells. It counts as cell-based. The following applies: chlorocebus sabaeus.
Data set [5] is described as follows: Therapeutic index, ratio of CC50 for PBMC (unknown origin) to EC50 for HCV genotype 1b. The following applies: PBMC (CC50) versus HCV genotype 1b (EC50).
The nature of data set [6]: Cytotoxicity against human HuH7 cells. It counts as cell-based. The following applies: huh-7.
The subject of data set [7] is Hepatitis C virus. Kind of data set: Antiviral activity against HCV genotype 1a. It is filed as functional, organism-based, Hepacivirus hominis. The following applies: subtype 1a.
Data set [8] concerns Hepatitis C virus. Kind of data set: Antiviral activity against HCV genotype 1b expressing NS5A Y93H mutant infected in human HuH7 cells assessed as reduction in viral RNA replication. The following applies: Huh-7. It is filed as functional, organism-based, Hepacivirus hominis.
In data set [9] the test system is Hepatitis C virus. Kind of data set: Antiviral activity against wild type HCV genotype 1b infected in human HuH7 cells assessed as reduction in viral RNA replication. It is filed as functional, organism-based, Hepacivirus hominis. The following applies: Huh-7.
Data set [10] has as its system Hepatitis C virus. Kind of data set: Antiviral activity against HCV genotype 2a. It counts as functional, organism-based, Hepacivirus hominis.
Data set [11] has as its system Hepatitis C virus. The experiment in a line: Antiviral activity against HCV genotype 1b expressing NS5A L31V mutant infected in human HuH7 cells assessed as reduction in viral RNA replication. It counts as functional, organism-based, Hepacivirus hominis. The following applies: Huh-7.
For data set [12], the system named is Hepatitis C virus. The experiment in a line: Resistance index, ratio of EC50 for HCV genotype 1b expressing NS5A L31V mutant infected in human HuH7 cells to EC50 for wild type HCV genotype 1b infected in human HuH7 cells. It counts as functional, Hepacivirus hominis, Huh-7.

Each structure is given as a SMILES string.

On to `COC(=O)N[C@@H](CS(=O)(=O)Cc1ccccc1)C(=O)N1CCC[C@H]1c1ncc(-c2ccc(-c3ccc(-c4cnc([C@@H]5CCCN5C(=O)[C@@H](NC(=O)OC)C(C)C)[nH]4)cc3)cc2)[nH]1`, for which the selectivity ratio in [1], in [2], in data set [4] and in data set [5] was more than 1e+06 each time. Also, the cytotoxic concentration (CC50) is 21000 nM in the data set with PBMC, more than 100000 nM with CCRF-CEM and more than 100000 nM with Vero. Moreover, the EC50 with Hepatitis C virus [3] was determined as 0.02 nM. For the same compound, in the data set with Hepatitis C virus [3], the EC90 came to 0.1 nM.
Regarding `COC(=O)N[C@@H](CSC)C(=O)N1CCC[C@H]1c1ncc(-c2ccc(-c3ccc(-c4cnc([C@@H]5CCCN5C(=O)[C@@H](NC(=O)OC)C(C)C)[nH]4)cc3)cc2)[nH]1`, the selectivity ratio in data set [1], in [2], in data set [4] and in data set [5] was more than 1e+06 each time. The CC50 in the data set with PBMC came out at 31000 nM; in the data set with CCRF-CEM, 11000 nM; with Vero, 18000 nM. Besides, the EC50 with Hepatitis C virus [3] worked out at 0.061 nM. In addition, the EC90 in the data set on Hepatitis C virus [3] came to 0.1 nM.
As to `COC(=O)N[C@@H](CSC(C)(C)C)C(=O)N1CCC[C@H]1c1ncc(-c2ccc(-c3ccc(-c4cnc([C@@H]5CCCN5C(=O)[C@@H](NC(=O)OC)C(C)C)[nH]4)cc3)cc2)[nH]1`, the half-maximal cytotoxic concentration (CC50) was more than 330000 nM in data set [6], 18000 nM in the data set with PBMC, 10000 nM with CCRF-CEM and 39000 nM with Vero. Also, the EC50 with Hepatitis C virus [7] is 0.14 nM; in the data set on Hepatitis C virus [8], not below 0.33 nM; with Hepatitis C virus [9], 0.14 nM; in the data set on Hepatitis C virus [10] it was 0.055 nM; in the data set with Hepatitis C virus [11] it was 0.072 nM; in the data set with Hepatitis C virus [3] it was 0.03 nM. In addition, the selectivity ratio in data set [1], in data set [2], in data set [4] and in data set [5] was more than 1e+06 throughout. Moreover, the EC90 with Hepatitis C virus [3] amounted to 0.1 nM.
For `COC(=O)N[C@@H](CCSC)C(=O)N1CCC[C@H]1c1ncc(-c2ccc(-c3ccc(-c4cnc([C@@H]5CCCN5C(=O)[C@@H](NC(=O)OC)C(C)C)[nH]4)cc3)cc2)[nH]1`, the CC50 in data set [6] is more than 330000 nM; with PBMC, 41000 nM; in the data set on CCRF-CEM, 11000 nM; in the data set on Vero it was 40000 nM. Further, the EC50 in the data set on Hepatitis C virus [7] was 0.059 nM; in the data set on Hepatitis C virus [8], more than 0.11 nM; with Hepatitis C virus [9] it was 0.059 nM; in the data set on Hepatitis C virus [10] it was 0.027 nM; in the data set on Hepatitis C virus [11], 0.05 nM; in the data set with Hepatitis C virus [3], 0.03 nM. Besides, the selectivity ratio in data set [1], in data set [2], in [4] and in data set [5] was more than 1e+06 each time. Moreover, the EC90 in the data set on Hepatitis C virus [3] turned out to be 0.1 nM.
In [6], `COC(=O)N[C@H](C(=O)N1CCC[C@H]1c1nc(-c2ccc(-c3ccc(-c4c[nH]c([C@@H]5CCCN5C(=O)[C@@H](NC(=O)OC)C(C)C)n4)cc3)cc2)c[nH]1)C(C)C` registered a CC50 of more than 15000 nM. Also, the EC50 came to 0.048 nM in the data set on Hepatitis C virus [7]; 0.18 nM with Hepatitis C virus [8]; 0.048 nM with Hepatitis C virus [9]; 0.024 nM in the data set with Hepatitis C virus [10]; 0.035 nM in the data set with Hepatitis C virus [11]; 0.004 nM in the data set with Hepatitis C virus [3]. The EC90 with Hepatitis C virus [3] is 0.02 nM.
For the compound `COC(=O)N[C@@H](C[S+]([O-])Cc1ccccc1)C(=O)N1CCC[C@H]1c1ncc(-c2ccc(-c3ccc(-c4cnc([C@@H]5CCCN5C(=O)[C@@H](NC(=O)OC)C(C)C)[nH]4)cc3)cc2)[nH]1` (stereo partly specified), the selectivity ratio in data set [1], in data set [2], in [4] and in data set [5] was more than 1e+06 throughout. Further, the CC50 with PBMC amounted to 42000 nM; with CCRF-CEM it was 11000 nM; with Vero it was 11000 nM. Also, the EC50 in the data set on Hepatitis C virus [3] was found to be 0.1 nM. For the same compound, the 90% effect concentration (EC90) with Hepatitis C virus [3] came to 0.3 nM.
For the compound `COC(=O)N[C@@H](CSCc1ccccc1)C(=O)N1CCC[C@H]1c1ncc(-c2ccc(-c3ccc(-c4cnc([C@@H]5CCCN5C(=O)[C@@H](NC(=O)OC)C(C)C)[nH]4)cc3)cc2)[nH]1`, the CC50 in [6] was more than 330000 nM; with PBMC it was more than 100000 nM; in the data set with CCRF-CEM it was 82000 nM; in the data set on Vero, more than 100000 nM. Also, the 50% effective concentration (EC50) in the data set with Hepatitis C virus [7] is 0.1 nM; in the data set on Hepatitis C virus [8], more than 0.33 nM; in the data set with Hepatitis C virus [9], 0.1 nM; in the data set on Hepatitis C virus [10], 0.039 nM; with Hepatitis C virus [11] it was 0.39 nM; in the data set on Hepatitis C virus [3] it was 0.02 nM. Moreover, the selectivity ratio in data set [1], in data set [2], in [4] and in data set [5] was more than 1e+06 each time. Also, in the data set on Hepatitis C virus [12], the “Ratio EC50” value is recorded as more than 3. Further, the EC90 in the data set on Hepatitis C virus [3] was 0.032 nM.

By CC50 is commonly meant the concentration that lowers cell viability or growth by half. Usually EC50 stands for the concentration at which the effect is half-maximal. One may read the EC90 as the concentration at which the effect reaches the 90% level.
